Here are results for four compounds from patent US5723319A, “Cultured cell line that inducibly expresses the hepatitis B virus genome, and uses thereof for screening antiviral substances” (Avid Therapeutics, Inc., priority 1995, dated 1998).

Read-outs that look alike come from different tables or passages of the source.

One test has as its system HBV (2.2.15 cells). Kind of test: Inhibition of release of HBV DNA into the extracellular environment, 2.2.15 cells (dot blot). In kind it is cell-based, hepatitis B virus. The source says:
The current state of, the art for the detection of HBV in tissue culture is the HepG2 or 2.2.15 cell line assay (Korba & Milman, Antiviral Research 15: 217-228 1991). This assay uses HepG2 cells (a human hepatoblastoma cell line) stably transfected with DNA from a clone containing two tandemly arranged copies of the HBV genome. […] The 2.2.15 cell line produces HBV at levels sufficient for measurement by conventional detection methods (Aoki-Sef et al., J. Infect. Dis. 164: 843-851 1988; Sells et al., Proc. Natl. Acad. Sci. USA 84: 4641-4644 1988).
Cells were seeded in 24 well plates at 4×10^5 cells/well and were grown to 100% confluency (approximately 3 days). At this time (day 0), cells were washed 3 times with PBS and 0.5 ml of medium containing various concentrations of known HBV inhibitors (ddC, 3TC and CDG). For each compound, four different concentrations and a negative control were tested, in the presence or in the absence of tetracycline. Typically, the medium was replaced 24 hours prior to collection with samples being collected four, eight, and twelve days after induction. Media were clarified by centrifugation and stored at -70° C. for further analysis. The procedure for susceptibility testing in a 96-well format was essentially the same as for the 24 well plate format except that cells were seeded in 96 well plates at 5×10^4 cells/well, 5 concentrations of drug were tested, and the volume of medium used was 100 μl. In addition, samples were removed from the wells for HBV DNA determination either with and without medium changes 24 hours prior to collection.
The samples were evaluated to determine the effective concentration of the inhibitors that inhibited the release of HBV DNA by 50%. This value is referred to as the EC50 for the compound.

In the next test the test system is HBV (Hep AD38 cells). In words: Inhibition of release of HBV DNA into the extracellular environment, Hep AD38 cells (dot blot). The class given is cell-based, human hepatitis B virus. The procedure:
Samples were analyzed by dot blot hybridization to detect the presence HBV DNA in the cell culture supernatants (Korba and Milman, 1991, supra). Supernatants were mixed with an equal volume of denaturation solution (1M NaOH/10× SSC) and incubated for 20 minutes at room temperature. The denatured supernatant mixture was blotted on a nylon membrane (Amersham, Arlington Heights, Ill.) using a dot blot apparatus (Schleicher and Schuell, Keene, N.H.). Samples were neutralized by washing the membrane with 0.5 ml of 1M Tris, pH 7.2/2M NaCl followed by 0.5 ml of 20× SSC. Filters were then rinsed in 2× SSC, subjected to UV light crosslinking (Stratalinker), and prehybridized in 5× SSC, 5× Denhardt's Reagent, 20 mM NaPO4, pH 6.5, 50% formamide, 1% SDS, and 250 mg/L salmon sperm DNA for 1 hour at 42° C.
A 2.8 Kb fragment corresponding to the HBV sequences of pCMAYW was generated by PCR amplification, and served as a template for the synthesis of [α-^32 P]dCTP labelled hybridization probes by random priming according to the vendor's specifications (Megaprime DNA Labelling System, Amersham). Blots were hybridized with the radioactively labelled probe for sixteen hours at 42° C. The filters were then washed twice in 2× SSC/0.1% SDS at 25° C. for 20 minutes each and twice in 0.2× SSC/0.1% SDS at 65° C. for 20 minutes each. Radioactivity for individual samples was quantitated with a Fuji MacBAS 1000 Phosphorimager.
Cells were seeded in 24 well plates at 4×10^5 cells/well and were grown to 100% confluency (approximately 3 days). At this time (day 0), cells were washed 3 times with PBS and 0.5 ml of medium containing various concentrations of known HBV inhibitors (ddC, 3TC and CDG). For each compound, four different concentrations and a negative control were tested, in the presence or in the absence of tetracycline. Typically, the medium was replaced 24 hours prior to collection with samples being collected four, eight, and twelve days after induction. […]
The samples were evaluated to determine the effective concentration of the inhibitors that inhibited the release of HBV DNA by 50%. […]

For test [1], the system named is HBV DNA intermediates (Hep AD38 cells). Kind of test: Southern blot of HBV DNA replicative intermediates (cccDNA, replicative intermediates, core DNA), Hep AD38 cells. In kind it is cell-based, human hepatitis B virus. To be noted: Hep AD38, presence of tetracycline. The procedure: For each of the Hep AD38, HepG2 and 2.2.15 cell lines, two 60 mm plates were seeded with 3×10^6 cells and allowed to grow as described above. When the cells became confluent, the medium was changed and tetracycline was removed from the medium on one of the plates. After a six day induction period, the medium again was removed and the cells were washed with PBS. Cells were then incubated at 37° C. for 10 minutes with 1 ml lysis buffer (0.5% SDS, 10 mM Tris-HCl, pH 7.5, 10 mM EDTA, 0.15M NaCl). The cell solutions were transferred to 1.5 ml Eppendorf tubes, adjusted to 0.5 M KCl, and incubated on ice for 15 minutes. The lysates were then clarified by high-speed centrifugation for 15 minutes at 4° C., and the supernatants were collected. DNA was isolated from the supernatants by phenol extraction followed by cold ethanol precipitation. Pelleted DNA was resuspended in 40 μl TE buffer.
For each cell line, two 60 mm plates were seeded with 3×10^6 cells. When the cells reached full confluency, the medium was changed and tetracycline was removed from the medium of one of the plates. After a 7 day induction period, the medium was removed and cells were washed with PBS. Cells were lysed by the addition of 0.6 ml of transfection lysis buffer (50 mM Tris, pH 8.0, 1 mM EDTA, 1% NP40) to each plate. The mixture was pipetted thoroughly to ensure complete cell lysis. […]

The subject of test [2] is HBV Dane particles (2.2.15 cells). In words: Induction of HBV Dane particles, 2.2.15 cells +/- tetracycline. The class given is cell-based, hepatitis B virus. The procedure:
(§1) For each cell line, two 60 mm plates were seeded with 3×10^6 cells. When the cells reached full confluency, the medium was changed and tetracycline was removed from the medium of one the plates. […] The medium was adjusted to 10% glycerol (by volume) and incubated one hour at 4° C. Dane particles were pelleted by […] centrifugation and resuspended in PBS. The viral capsid was disrupted with 1% NP-40 (Sigma Chemical Co., St Louis, Mo.) and the capsid proteins were digested with proteinase K (50 μg/ml). The viral DNA was analyzed by dot blot hybridization using a radioactively labeled probe specific for HBV DNA.

Test [3] concerns HBV Dane particles (HepG2 cells). Kind of test: Induction of HBV Dane particles, HepG2 cells +/- tetracycline. The class given is cell-based, hepatitis B virus. The method, then: as §1
Test [4] deals with HBV Dane particles (Hep AD38 cells). In words: Induction of HBV Dane particles, Hep AD38 cells +/- tetracycline. In kind it is cell-based, human hepatitis B virus. The method, then: as §1

For `Nc1ccn([C@@H]2CS[C@H](CO)O2)c(=O)n1` [3TC], the concentration giving a half-maximal response (EC50) was 0.05 µM with HBV (2.2.15 cells) (Hepatitis B virus) and 0.02 µM in the test on HBV (Hep AD38 cells) (Hepatitis B virus, HePAD38).

Consider `Nc1nc2c(ncn2C2CC(O)C(CO)C2)c(=O)[nH]1` (stereo not shown) [CDG], for which the EC50 in the test on HBV (2.2.15 cells) came to 0.019 µM; in the test with HBV (Hep AD38 cells), 0.011 µM.

In the case of `Nc1ccn([C@H]2CC[C@@H](CO)O2)c(=O)n1` [ddC], the EC50 is 6 µM in the test with HBV (2.2.15 cells) (Hepatitis B virus) and 8 µM in the test on HBV (Hep AD38 cells) (Hepatitis B virus, HePAD38).

Take `CN(C)C1C(=O)C(C(N)=O)=C(O)C2(O)C(=O)C3=C(O)c4c(O)cccc4C(C)(O)C3CC12` (stereo not shown) [tetracycline]: the “HBV DNA intermediates made” value in test [1] is “not made”. Besides, the “HBV DNA released (Dane particles)” value in test [2] (2.2.15, +Tet, Day 7) was 1.8 × 10^4 CPM/well; in test [2] (2.2.15, +Tet., Day 4), 4 × 10^3 CPM/well; in test [3] (HepG2, +Tet, Day 7), 0 CPM/well; in test [3] (HepG2, +Tet., Day 4), 0 CPM/well; in test [4] (Hep AD38, +Tet, Day 7), 0 CPM/well; in test [4] (Hep AD38, +Tet., Day 4) it was 0 CPM/well. Also, the “response to the presence or absence of tetracycline with regard to release of HBV DNA into the medium” value in test [2] (2.2.15, presence or absence of tetracycline) was “no response”. Also, in test [4] (Hep AD38, 0.3 μg/ml of tetracycline), the “production of HBV Dane particles” value is reported as “completely inhibits”. Besides, the “release of HBV DNA into the extracellular environment” value in test [4] (Hep AD38, grown in the presence of tetracycline) is recorded as “do not release HBV DNA”.

Broadly, the EC50 is the midpoint of the concentration-response curve. A low value points to a more potent agent.
